Assay results as given in PMC5681660, “Reduced hepatitis B and D viral entry using clinically applied drugs as novel inhibitors of the bile acid transporter NTCP” (Scientific Reports, 2017).
Where a name gives a salt, the structure may show the parent alone. Read-outs that look alike come from different tables or passages of the source.

What was measured:
human NTCP [1] = target: T1, human NTCP (Homo sapiens, UniProt Q14973); assay: Screening taurocholate uptake assay (96-well, [14C]taurocholate, 10 µM drug)
T1 sequence (Q14973 1-349): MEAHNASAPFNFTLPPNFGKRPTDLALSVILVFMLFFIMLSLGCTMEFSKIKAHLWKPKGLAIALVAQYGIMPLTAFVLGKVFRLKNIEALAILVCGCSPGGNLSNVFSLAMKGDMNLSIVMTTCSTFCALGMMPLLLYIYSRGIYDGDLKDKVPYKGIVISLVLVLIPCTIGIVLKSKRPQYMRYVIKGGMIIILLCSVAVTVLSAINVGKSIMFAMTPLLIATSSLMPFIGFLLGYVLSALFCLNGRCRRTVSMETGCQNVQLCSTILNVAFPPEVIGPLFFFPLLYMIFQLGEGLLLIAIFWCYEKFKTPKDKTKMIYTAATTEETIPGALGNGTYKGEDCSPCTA

human NTCP [2] = target: T1, human NTCP; assay: Screening fluorescent competitive Myrcludex B-FITC binding assay (96-well, 10 µM drug)
[3] = combined ranking from functional and binding screening assays
[4] = screen, 10 µM drug, taurocholate uptake
[5] = screen, 10 µM drug, Myrcludex B-FITC binding
[6] = Prestwick library screen, taurocholate uptake, 10 µM drug
[7] = ranking score beside the functional and binding assay B-scores of the screen
[8] = Prestwick library screen, Myrcludex B-FITC binding, 10 µM drug
[9] = Prestwick library screen, 10 µM drug, B-score of taurocholate uptake
[10] = combined ranking from functional and binding assay B-scores
[11] = Prestwick library screen, 10 µM drug, B-score of Myrcludex B-FITC binding

Compound	Ranking score (human NTCP [1]; [3])	B-score functional assay (human NTCP [1]; [4])	B-score binding assay (human NTCP [2]; [5])	B-score functional assay (human NTCP [1]; [6])	Ranking score (human NTCP [1]; [7])	B-score binding assay (human NTCP [2]; [8])	also measured
CC(C(=O)[O-])c1cccc(Oc2ccccc2)c1.CC(C(=O)[O-])c1cccc(Oc2ccccc2)c1.O.O.[Ca+2] (stereo not drawn) [Fenoprofen calcium salt dihydrate]	452.388	-0.759	0.022	–	–	–	–
CC(Cc1ccc(O)cc1)NCC(O)c1cc(O)cc(O)c1 (stereo not drawn) [Fenoterol hydrobromide]	457.393	1.4	-1.328	–	–	–	–
O=C1NCC2(CCN(CCc3ccccc3)CC2)O1 [Fenspiride hydrochloride]	–	–	–	0.107	788.391	0.26	–
O=C(O)Cc1sc(-c2ccccc2)nc1-c1ccc(Cl)cc1 [Fentiazac]	402.269	-1.501	0.475	–	–	–	–
CC(C)(C)NC(=O)[C@H]1CC[C@H]2[C@@H]3CC[C@H]4NC(=O)C=C[C@]4(C)[C@H]3CC[C@]12C [Finasteride]	406.586	-1.623	0.768	–	–	–	–
Cc1c(-c2ccccc2)oc2c(C(=O)OCCN3CCCCC3)cccc2c1=O [Flavoxate hydrochloride]	–	–	–	-0.169	734.394	1.224	–
O=C(NCC1CCCCN1)c1cc(OCC(F)(F)F)ccc1OCC(F)(F)F (stereo not drawn) [Flecainide acetate]	448.174	-1.076	0.272	–	–	–	–
O=c1[nH]c(=O)n([C@H]2C[C@H](O)[C@@H](CO)O2)cc1F [Floxuridine]	–	–	–	0.659	772.114	-0.009	–
COC(=O)Nc1nc2cc(C(=O)c3ccc(F)cc3)ccc2[nH]1 [Flubendazol]	–	–	–	1.185	683.74	-0.335	–
Cc1onc(-c2c(F)cccc2Cl)c1C(=O)N[C@@H]1C(=O)N2[C@@H]1SC(C)(C)[C@@H]2C(=O)O [Flucloxacillin sodium]	–	–	–	–	–	–	B-score functional assay (human NTCP [1]; [9]): 0.761; Ranking score (human NTCP [1]; [10]): 1024.7; B-score binding assay (human NTCP [2]; [11]): 1.029
Nc1[nH]c(=O)ncc1F [Flucytosine]	352.224	-1.554	0.063	–	–	–	–
Nc1nc(F)nc2c1ncn2[C@@H]1O[C@H](CO)[C@@H](O)[C@@H]1O [Fludarabine]	–	–	–	1.199	822.35	-0.02	–
CC(=O)OCC(=O)[C@@]1(O)CC[C@H]2[C@@H]3CCC4=CC(=O)CC[C@]4(C)[C@@]3(F)[C@@H](O)C[C@@]21C [Fludrocortisone acetate]	430.869	0.011	-0.826	–	–	–	–
CC1CCc2cc(F)cc3c(=O)c(C(=O)O)cn1c23 (stereo not drawn) [Flumequine]	–	–	–	–	–	–	B-score functional assay (human NTCP [1]; [9]): 2.117; Ranking score (human NTCP [1]; [10]): 855.599; B-score binding assay (human NTCP [2]; [11]): -0.028
Fc1ccc(C(c2ccc(F)cc2)N2CCN(C/C=C/c3ccccc3)CC2)cc1 [Flunarizine dihydrochloride]	–	–	–	0.875	816.419	0.001	–
CC1(C)O[C@@H]2C[C@H]3[C@@H]4C[C@H](F)C5=CC(=O)C=C[C@]5(C)[C@H]4[C@@H](O)C[C@]3(C)[C@]2(C(=O)CO)O1 [Flunisolide]	–	–	–	0.152	805.548	0.284	–
CC1(C)O[C@@H]2C[C@H]3[C@@H]4C[C@H](F)C5=CC(=O)C=C[C@]5(C)[C@@]4(F)[C@@H](O)C[C@]3(C)[C@]2(C(=O)CO)O1 [Fluocinolone acetonide]	–	–	–	0.621	752.533	-0.033	–

Compound	Ranking score (human NTCP [1]; [3])	B-score functional assay (human NTCP [1]; [4])	B-score binding assay (human NTCP [2]; [5])	B-score functional assay (human NTCP [1]; [6])	Ranking score (human NTCP [1]; [7])	B-score binding assay (human NTCP [2]; [8])	also measured
CC1(C)O[C@@H]2C[C@H]3[C@@H]4C[C@H](F)C5=CC(=O)CC[C@]5(C)[C@H]4[C@@H](O)C[C@]3(C)[C@]2(C(=O)CO)O1 [Flurandrenolide]	407.676	-0.782	-0.083	–	–	–	–
CC(C)C(=O)Nc1ccc([N+](=O)[O-])c(C(F)(F)F)c1 [Flutamide]	383.15	-1.233	0.039	–	–	–	–
CCC(=O)O[C@]1(C(=O)SCF)[C@H](C)C[C@H]2[C@@H]3C[C@H](F)C4=CC(=O)C=C[C@]4(C)[C@@]3(F)[C@@H](O)C[C@@]21C [Fluticasone propionate]	–	–	–	0.021	830.535	0.947	–
Nc1nc(=O)c2nc(CNc3ccc(C(=O)N[C@@H](CCC(=O)O)C(=O)O)cc3)cnc2[nH]1 [Folic acid]	436.211	-0.57	-0.117	–	–	–	–
Nc1nc(=O)c2c([nH]1)NCC(CNc1ccc(C(=O)N[C@@H](CCC(=O)[O-])C(=O)[O-])cc1)N2C=O.[Ca+2] (stereo partly drawn) [Folinic acid calcium salt]	–	–	–	0.369	806.918	0.117	–
Cc1cn[nH]c1 [Fomepizole]	–	–	–	0.928	795.707	-0.028	–
C[C@]12CCC(=O)C(O)=C1CC[C@@H]1[C@@H]2CC[C@]2(C)C(=O)CC[C@@H]12 [Formestane]	–	–	–	–	–	–	B-score functional assay (human NTCP [1]): -0.613; Ranking score (human NTCP [1]): 420.899; B-score binding assay (human NTCP [2]): -0.147
COc1ccc(C[C@@H](C)NC[C@H](O)c2ccc(O)c(NC=O)c2)cc1.COc1ccc(C[C@@H](C)NC[C@H](O)c2ccc(O)c(NC=O)c2)cc1.O=C(O)/C=C/C(=O)O [Formoterol fumarate]	–	–	–	1.513	764.904	-0.165	–
O=C(O)c1ccccc1OP(=O)(O)O [Fosfosal]	393.853	-0.869	-0.072	–	–	–	–
CCC(=O)O[C@@H](O[P@](=O)(CCCCc1ccccc1)CC(=O)N1C[C@H](C2CCCCC2)C[C@H]1C(=O)O)C(C)C [Fosinopril]	–	–	–	3.318	655.924	-0.621	–
C[C@]12CC[C@@H]3c4ccc(O)cc4C[C@@H](CCCCCCCCC[S+]([O-])CCCC(F)(F)C(F)(F)F)[C@H]3[C@@H]1CC[C@@H]2O (stereo partly drawn) [Fulvestrant]	–	–	–	1.208	701.076	-0.303	–
C/C(=C(/CCO)SSCC1CCCO1)N(C=O)Cc1cnc(C)nc1N.Cl (stereo not drawn) [Fursultiamine Hydrochloride]	–	–	–	–	–	–	B-score functional assay (human NTCP [1]): 1.116; Ranking score (human NTCP [1]): 897.109; B-score binding assay (human NTCP [2]): 0.087
Cl.Cl.Fc1ccc(C(OCCN2CCN(CCCc3ccccc3)CC2)c2ccc(F)cc2)cc1 [GBR 12909 dihydrochloride]	416.575	-0.602	-0.172	–	–	–	–
NCC1(CC(=O)O)CCCCC1 [Gabapentin]	428.131	-0.982	0.068	–	–	–	–
COc1ccc2c3c1O[C@H]1C[C@@H](O)C=C[C@@]31CCN(C)C2 [Galanthamine hydrobromide]	–	–	–	0.072	808.114	0.486	–
Nc1nc(O)c2ncn(COC(CO)CO)c2n1 [Ganciclovir]	278.51	-2.412	0.144	–	–	–	–
